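Where inhibition never reached the appropriate level, the endpoint shown equals the highest concentration tested. Otherwise, values were interpolated linearly from a five-concentration, 48-hour dose response in 96-well plates. The concentration for full growth arrest is given as TGI.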
Columns and labels:
Experiment in all cases: growth of human tumour cells (NCI), 48 h
786-0 renal = test system: 786-0 renal
K-562 leukemia = test system: K-562 leukemia
KM12 colon = test system: KM12 colon
KM20L2 colon = test system: KM20L2 colon
M19-MEL melanoma = test system: M19-MEL melanoma
NCI-H226 lung = test system: NCI-H226 lung
SF-268 CNS = test system: SF-268 CNS
SNB-75 CNS = test system: SNB-75 CNS
SNB-78 CNS = test system: SNB-78 CNS
SW-620 colon = test system: SW-620 colon
HS 578T breast = test system: HS 578T breast
PC-3 prostate = test system: PC-3 prostate

SMILES | TGI (786-0 renal) [µM] | TGI (K-562 leukemia) [µM] | TGI (KM12 colon) [µM] | TGI (KM20L2 colon) [µM] | TGI (M19-MEL melanoma) [µM] | TGI (NCI-H226 lung) [µM] | TGI (SF-268 CNS) [µM] | TGI (SNB-75 CNS) [µM] | TGI (SNB-78 CNS) [µM] | TGI (SW-620 colon) [µM] | TGI (HS 578T breast) [µM] | TGI (PC-3 prostate) [µM]
CC1(C2CCC3(C)OC3C2)CO1 (configuration not stated) | > 100 | > 100 | > 100 | > 100 | > 100 | > 100 | > 100 | > 100 | > 100 | > 100 | – | –
Nc1ncnc2c1ncn2Cc1cccc(CCl)c1 | 34.6 | > 100 | 33 | – | – | 33.4 | 32.4 | > 100 | – | 29.9 | > 100 | 35.5
CC(=O)O[C@H]1CC[C@@]2(C)[C@H](CC[C@@H]3[C@@H]2CC[C@]2(C)[C@@H](c4ccc(=O)oc4)C[C@H]4O[C@]342)C1 | – | 13 | 36.8 | 12.5 | 7.17 | 7.75 | 1.29 | 3.45 | 4.8 | 3.1 | – | –
c1ccc(-c2nnn(CCN3CCCCC3)n2)cc1 | > 100 | > 100 | > 100 | – | – | > 100 | > 100 | > 100 | – | > 100 | > 100 | > 100
CC(C)OC1OC(CO)C(O)CC1n1cc(F)c(=O)[nH]c1=O (configuration not stated) | > 100 | 86.4 | > 100 | – | – | > 100 | > 100 | > 100 | – | > 100 | > 100 | > 100
Cc1cc2c(c(=O)n1C)SCC2 | > 100 | > 100 | > 100 | – | – | > 100 | > 100 | > 100 | – | > 100 | > 100 | > 100
CC(=O)CC(=O)CCC(=O)O | – | > 100 | > 100 | > 100 | > 100 | > 100 | > 100 | – | > 100 | > 100 | – | –
NCCC1CN(C(=O)OCc2ccccc2)c2ccccc21 (configuration not stated) | 29.8 | 26.9 | 48.2 | – | – | 26.8 | 39.4 | 43.3 | – | 25.4 | 56.8 | > 36.2
C(/Cc1ccc2c(c1)OCO2)=N\NC1=NCCCN1 | > 100 | > 100 | > 100 | – | – | > 100 | > 100 | 81.1 | – | > 100 | > 100 | > 100
NC(=O)Cc1nc2c(=O)[nH]cnc2n1C1OC(CO)C(O)C1O (configuration not stated) | > 100 | > 100 | > 100 | – | – | > 100 | > 100 | > 100 | – | > 100 | > 100 | > 100
COc1ccc(-c2cc(C(O)C3CCCCN3)c3ccccc3n2)cc1 (configuration not stated) | 20.6 | 8.24 | 15.3 | – | – | 20.9 | 27.7 | 17.1 | – | 25.2 | 40.3 | 16.9
CCN(CC)c1nc(N(C)C)c2ccccc2n1 | > 100 | 44.5 | > 100 | – | – | 69.3 | > 100 | > 100 | – | > 100 | > 100 | > 100
Cc1ccc(-c2n[nH]c(=O)n2/N=C\c2ccccc2)cc1 | > 100 | > 100 | > 100 | – | – | > 100 | > 89.1 | 80.3 | – | > 100 | 81.3 | > 100

— PubChem BioAssay (NCI)
